Our source for the IC50 values is patent US12145944B2, “Imidazopyrimidines as EED inhibitors and the use thereof” (THE REGENTS OF THE UNIVERSITY OF MICHIGAN, priority 2019, dated 2024).

A value given as a limit tells only on which side of the number the result lay.

One assay relates to KARPAS422 human B cell lymphoma cell. Briefly: Cell proliferation, KARPAS422, 7 day treatment (WST-8). The note with it: Homo sapiens, KARPAS-422, 168 h, anti-proliferative IC50, Karpas 422 cell line, 7 day treatment; read-out: Karpas Cell line. It is filed as cell-based. The procedure:
“N/A” stands for “not assessed”.
Analysis of Cell Proliferation:
To assess the effect of PRC2 inhibition on cell growth, cells were seeded in 96-well cell culture plates at a density of 2 000-3 000 cells/well in 200 µL of culture medium, and treated with serially diluted compounds for 7 days at 37° C. in an atmosphere of 5% CO2. Cell growth was evaluated by a […] WST-8 assay (Dojindo Molecular Technologies) using a Tecan Infinite M1000 multimode microplate reader (Tecan, Morrisville, NC). The WST-8 reagent was added to the plate, incubated for 1-4 h, and read at 450 nm. The readings were normalized to the DMSO-treated cells, and the IC50 was calculated by nonlinear regression analysis using GraphPad Prism 6 software
`c1ccc(-c2cnc(NCc3ccco3)n3cncc23)cc1` [Cpd. No. 126, N-(furan-2-ylmethyl)-8-phenylimidazo[1,5-c]pyrimidin-5-amine]: the IC50 is over 100 nM. The same measure, in the same setting: the value for `CCOC(=O)c1ncn2c(NCc3ccco3)ncc(-c3ccccc3)c12` [Cpd. No. 127, ethyl 5-((furan-2-ylmethyl)amino)-8-phenylimidazo[1,5-c]pyrimidine-1-carboxylate] was over 100 nM; that for `CNC(=O)c1ncn2c(NCc3ccco3)ncc(-c3ccccc3)c12` [Cpd. No. 128, 5-((furan-2-ylmethyl)amino)-N-methyl-8-phenylimidazo[1,5-c]pyrimidine-1-carboxamide] was over 100 nM; that for `Fc1ccc2c(c1CNc1ncc(-c3ccccc3)c3c(C(F)(F)F)ncn13)CCO2` [Cpd. No. 143, N-((5-fluoro-2,3-dihydrobenzofuran-4-yl)methyl)-8-phenyl-1-(trifluoromethyl)imidazo[1,5-c]pyrimidin-5-amine] was over 100 nM. Same read-out and setting: the value for `CP(C)(=O)c1ncn2c(NCc3c(F)ccc4c3CCO4)ncc(-c3ccccc3)c12` [Cpd. No. 144, (5-(((5-fluoro-2,3-dihydrobenzofuran-4-yl)methyl)amino)-8-phenylimidazo[1,5-c]pyrimidin-1-yl)dimethylphosphine oxide] was over 10 nM; that for `O=C1OCc2cc(OC(F)(F)F)ccc2-c2cnc(NCc3c(F)ccc4c3CCO4)n3cnc1c23` [compound 31, 12-(((5-fluoro-2,3-dihydrobenzofuran-4-yl)methyl)amino)-7-(trifluoromethoxy)-3H,5H-4-oxa-2,11,12a-triazabenzo[4,5]cycloocta[1,2,3-cd]inden-3-one] was 3.68 nM. Same read-out and setting: the value for `O=C1c2ncn3c(NCc4c(F)ccc5c4CCO5)ncc(c23)-c2ccc(C(F)(F)F)nc2CN1CC1CCOCC1` [compound 46, 12-(((5-fluoro-2,3-dihydrobenzofuran-4-yl)methyl)amino)-4-((tetrahydro-2H-pyran-4-yl)methyl)-7-(trifluoromethyl)-4,5-dihydro-3H-2,4,6,11,12a-pentaazabenzo[4,5]cycloocta[1,2,3-cd]inden-3-one] was 0.57 nM; that for `CC1(O)CC(CN2Cc3nc(C(F)(F)F)ccc3-c3cnc(NCc4c(F)ccc5c4CCO5)n4cnc(c34)C2=O)C1` (stereo not drawn) [compound 47, 12-(((5-fluoro-2,3-dihydrobenzofuran-4-yl)methyl)amino)-4-((3-hydroxy-3-methylcyclobutyl)methyl)-7-(trifluoromethyl)-4,5-dihydro-3H-2,4,6,11,12a-pentaazabenzo[4,5]cycloocta[1,2,3-cd]inden-3-one] was 0.65 nM; that for `CC(C)(O)CN1Cc2cc(C(F)(F)F)ncc2-c2cnc(NCc3c(F)ccc4c3CCO4)n3cnc(c23)C1=O` [compound 48, 12-(((5-fluoro-2,3-dihydrobenzofuran-4-yl)methyl)amino)-4-(2-hydroxy-2-methylpropyl)-7-(trifluoromethyl)-4,5-dihydro-3H-2,4,8,11,12a-pentaazabenzo[4,5]cycloocta[1,2,3-cd]inden-3-one] was 0.74 nM. In the case of `CC1(O)CC(CN2Cc3cc(C(F)(F)F)ncc3-c3cnc(NCc4c(F)ccc5c4CCO5)n4cnc(c34)C2=O)C1` (stereo not drawn) [compound 49, 12-(((5-fluoro-2,3-dihydrobenzofuran-4-yl)methyl)amino)-4-((3-hydroxy-3-methylcyclobutyl)methyl)-7-(trifluoromethyl)-4,5-dihydro-3H-2,4,8,11,12a-pentaazabenzo[4,5]cycloocta[1,2,3-cd]inden-3-one], the IC50 was found to be 2.78 nM.

In the case of `Cc1ccc2c(n1)CN(CC1CC(C)(O)C1)C(=O)c1ncn3c(NCc4c(F)ccc5c4CCO5)ncc-2c13` (stereo not drawn) [compound 50, 12-(((5-fluoro-2,3-dihydrobenzofuran-4-yl)methyl)amino)-4-((3-hydroxy-3-methylcyclobutyl)methyl)-7-methyl-4,5-dihydro-3H-2,4,6,11,12a-pentaazabenzo[4,5]cycloocta[1,2,3-cd]inden-3-one], the IC50 came out at 0.71 nM. The same measure, in the same setting: the value for `O=C1c2ncn3c(NCc4c(F)ccc5c4CCO5)ncc(c23)-c2ccc(C(F)(F)F)nc2CN1C1CCOCC1` [compound 51, 12-(((5-fluoro-2,3-dihydrobenzofuran-4-yl)methyl)amino)-4-(tetrahydro-2H-pyran-4-yl)-7-(trifluoromethyl)-4,5-dihydro-3H-2,4,6,11,12a-pentaazabenzo[4,5]cycloocta[1,2,3-cd]inden-3-one] was 2.08 nM.

In the case of `O=C1c2ncn3c(NCc4c(F)ccc5c4CCO5)ncc(c23)-c2ccc(C(F)(F)F)nc2CN1CC1CCOC1` (stereo not drawn) [compound 52, 12-(((5-fluoro-2,3-dihydrobenzofuran-4-yl)methyl)amino)-4-((tetrahydrofuran-3-yl)methyl)-7-(trifluoromethyl)-4,5-dihydro-3H-2,4,6,11,12a-pentaazabenzo[4,5]cycloocta[1,2,3-cd]inden-3-one], the IC50 was found to be 0.54 nM. Consider `Cn1ncc2c1CNC(=O)c1ncn3c(NCc4c(F)ccc5c4CCO5)ncc-2c13` [compound 53, 11-(((5-fluoro-2,3-dihydrobenzofuran-4-yl)methyl)amino)-6-methyl-5,6-dihydro-2,4,6,7,10,11a-hexaazacyclopenta[4,5]cycloocta[1,2,3-cd]inden-3(4H)-one], for which the IC50 is over 100 nM.

Turning to `Cn1cc2c(n1)COC(=O)c1ncn3c(NCc4c(F)ccc5c4CCO5)ncc-2c13` [compound 54, 11-(((5-fluoro-2,3-dihydrobenzofuran-4-yl)methyl)amino)-7-methyl-5,7-dihydro-3H-4-oxa-2,6,7,10,11a-pentaazacyclopenta[4,5]cycloocta[1,2,3-cd]inden-3-one], the IC50 was over 100 nM. Still for that read-out and setting: next, `O=C1c2ncn3c(NCc4c(F)ccc5c4CCO5)ncc(c23)-c2ccc(C(F)(F)F)nc2CN1CC1CC1` [compound 55, 4-(cyclopropylmethyl)-12-(((5-fluoro-2,3-dihydrobenzofuran-4-yl)methyl)amino)-7-(trifluoromethyl)-4,5-dihydro-3H-2,4,6,11,12a-pentaazabenzo[4,5]cycloocta[1,2,3-cd]inden-3-one]: 8.08 nM; `Cc1nn(C)c2c1-c1cnc(NCc3c(F)ccc4c3CCO4)n3cnc(c13)C(=O)N(C1CC1)C2` [compound 56, 4-cyclopropyl-11-(((5-fluoro-2,3-dihydrobenzofuran-4-yl)methyl)amino)-6,8-dimethyl-5,6-dihydro-2,4,6,7,10,11a-hexaazacyclopenta[4,5]cycloocta[1,2,3-cd]inden-3(4H)-one]: 21 nM; `COCCN1Cc2nc(C(F)(F)F)ccc2-c2cnc(NCc3c(F)ccc4c3CCO4)n3cnc(c23)C1=O` [compound 57, 12-(((5-fluoro-2,3-dihydrobenzofuran-4-yl)methyl)amino)-4-(2-methoxyethyl)-7-(trifluoromethyl)-4,5-dihydro-3H-2,4,6,11,12a-pentaazabenzo[4,5]cycloocta[1,2,3-cd]inden-3-one]: 2.63 nM. Still for that read-out and setting: next, `CC(C)N1Cc2nc(C(F)(F)F)ccc2-c2cnc(NCc3c(F)ccc4c3CCO4)n3cnc(c23)C1=O` [compound 59, 12-(((5-fluoro-2,3-dihydrobenzofuran-4-yl)methyl)amino)-4-isopropyl-7-(trifluoromethyl)-4,5-dihydro-3H-2,4,6,11,12a-pentaazabenzo[4,5]cycloocta[1,2,3-cd]inden-3-one]: 39.9 nM; `O=C1c2ncn3c(NCc4c(F)ccc5c4CCO5)ncc(c23)-c2ccc(C(F)(F)F)cc2CN1C1CCOCC1` [compound 60, 12-(((5-fluoro-2,3-dihydrobenzofuran-4-yl)methyl)amino)-4-(tetrahydro-2H-pyran-4-yl)-7-(trifluoromethyl)-4,5-dihydro-3H-2,4,11,12a-tetraazabenzo[4,5]cycloocta[1,2,3-cd]inden-3-one]: 1.18 nM. The same measure, in the same setting: next, `O=C1c2ncn3c(NCc4c(F)ccc5c4CCO5)ncc(c23)-c2ccc(C(F)(F)F)cc2CN1CCF` [compound 61, 12-(((5-fluoro-2,3-dihydrobenzofuran-4-yl)methyl)amino)-4-(2-fluoroethyl)-7-(trifluoromethyl)-4,5-dihydro-3H-2,4,11,12a-tetraazabenzo[4,5]cycloocta[1,2,3-cd]inden-3-one]: 1.63 nM; `CC(C)(F)CN1Cc2cc(C(F)(F)F)ccc2-c2cnc(NCc3c(F)ccc4c3CCO4)n3cnc(c23)C1=O` [compound 62, 12-(((5-fluoro-2,3-dihydrobenzofuran-4-yl)methyl)amino)-4-(2-fluoro-2-methylpropyl)-7-(trifluoromethyl)-4,5-dihydro-3H-2,4,11,12a-tetraazabenzo[4,5]cycloocta[1,2,3-cd]inden-3-one]: 4.86 nM. With `CC(F)(F)CN1Cc2cc(C(F)(F)F)ccc2-c2cnc(NCc3c(F)ccc4c3CCO4)n3cnc(c23)C1=O` [compound 63, 4-(2,2-difluoropropyl)-12-(((5-fluoro-2,3-dihydrobenzofuran-4-yl)methyl)amino)-7-(trifluoromethyl)-4,5-dihydro-3H-2,4,11,12a-tetraazabenzo[4,5]cycloocta[1,2,3-cd]inden-3-one], the IC50 amounted to 3.69 nM.

The same assay, now with this note: anti-proliferative IC50, Karpas 422 cell line, 7 day treatment; read-out: Karpas Cell line.
For the molecule `O=C1c2ncn3c(NCc4c(F)ccc5c4CCO5)ncc(c23)-c2ccc(F)cc2CN1C1CC1` [compound 64, 4-cyclopropyl-7-fluoro-12-(((5-fluoro-2,3-dihydrobenzofuran-4-yl)methyl)amino)-4,5-dihydro-3H-2,4,11,12a-tetraazabenzo[4,5]cycloocta[1,2,3-cd]inden-3-one], the IC50 is 2.44 nM.
